Measurements from a melting point compilation (Tetko et al.; mined from patent text by program, amines drawn as free bases though some values may be those of a salt).

Row | SMILES | melting point [°C]
1 | O=C(O)c1cc2cc(Cl)ccc2nc1NC(Cc1cccc(F)c1)C(=O)O (centres undefined) | 177 to 181
2 | COCc1ncnc(O)c1C | 139 to 140
3 | CC(=O)Nc1ccc(C2CN(C)Cc3c(Cl)cc(Cl)cc32)cc1 (centres undefined) | 205 to 206
4 | CCN1CCCC1CNC(=O)c1c(O)ccc(Br)c1OC (centres undefined) | 62 to 63
5 | COc1cc(C(=O)Nc2c(C)cc3cn[nH]c3c2C(=O)NC2(C3CC3)CC2)n(-c2ncccc2Cl)n1 | 150 to 154
6 | CCCNC(=O)COC1C(O)C(CO)OC(Oc2ccc(N)cc2)C1O (centres undefined) | 154
7 | CN1CCN(c2cccc3c2C[C@H](NC(=O)c2csc(-c4ccccc4)n2)CC3)CC1 | 175 to 176
8 | Cc1cn(-c2cccc(C3=Nc4ccc(C#Cc5ccc(F)cc5)cc4NC(=O)C3)c2)cn1 | 210
9 | N#CN=C(Oc1ccccc1)N1CCCCC1 | 85.7
10 | CC12CCC3c4ccc(OC(=O)Cc5ccccc5)cc4CCC3C1CCC2=O (centres undefined) | 114 to 116
11 | O=S1(=O)CCCS(=O)(=O)C1(CCCCl)c1ccccc1 | 182
12 | CCOC(=O)C(=O)C1C(=O)c2cccc3c2C1CCC3 (centres undefined) | 92 to 94
13 | Cc1c(Cl)cc(C=O)c(O)c1Cl | 94 to 95.1
14 | Nc1ccccc1C(=O)NCCc1cccnc1 | 126 to 128
15 | CC(C)CCCC(C)Cc1cncn1Cc1ccccc1 (centres undefined) | 61 to 62
16 | CCCNc1c2c(nc3ccccc13)CCCC2O (centres undefined) | 164
17 | Cn1nc(Sc2ccc(C(=O)OCC(C)(C)C)c(Cl)c2)n(C)c1=O | 101
18 | COc1ccccc1N1CCN(CCNC(=O)CCN2CCC(c3c[nH]c4cc(F)ccc34)CC2)CC1 | 68 to 70
19 | CN(C)c1cc(C(OC(=O)C(Cl)(Cl)Cl)c2ccccc2)c([N+](=O)[O-])cc1[N+](=O)[O-] (centres undefined) | 91 to 92
20 | CCNC(=O)[C@H]1CN(c2ccc3c(c2)sc(=O)n3C)C(=O)O1 | 224 to 226
21 | OC1CSC(Oc2cccc(-c3ccc(Cl)nc3)c2)C(O)C1O (centres undefined) | 189
22 | c1c[nH]c(C(c2ccc[nH]2)C23CC4CC(C2)CC(C(c2ccc[nH]2)c2ccc[nH]2)(C4)C3)c1 | 110 to 112
23 | Cc1nc(Nc2ccc(Cl)cc2)sc1C(=O)c1sc(Nc2ccc(Cl)cc2)nc1C | 184 to 186
24 | CC(C)(C)OC(=O)NC[C@H]1C[C@H]1CON1C(=O)c2ccccc2C1=O (relative stereo) | 96 to 97
25 | CC1(C)CCC(N2c3ccccc3Oc3ccc(Cl)cc32)=N1 | 118 to 120

Row | SMILES | melting point [°C]
26 | O=C(Nc1ccc(C(=O)N2CCc3cn[nH]c3-c3ccccc32)cn1)c1ccccc1-c1ccccc1 | 228 to 234
27 | CCOCc1nc2c(N)nc3cc(-c4cccnc4)ccc3c2n1Cc1ccc(CN)cc1 | 211 to 214
28 | CC(C)Nc1nc2cc(Cl)c(Cl)cc2n1[C@H]1O[C@@H](C)[C@H](O)[C@@H]1O | 103 to 105
29 | Cc1oc(-c2ccco2)nc1COc1cccc(CO)c1 | 100 to 101
30 | CC(C)(C)OC(=O)N1CC2CN(C(N)=S)CC2C1 (centres undefined) | 188 to 190
31 | Cc1ccc2nc(-c3ccc4oc(=O)n(C)c4c3)c(C)n2c1 | 247 to 249
32 | COC(=O)c1cc2nc(C)[nH]c2cc1C(=O)OC | 151 to 152
33 | NCCOc1cc(-c2ccccn2)nc(-c2ccccn2)c1 | 134 to 137
34 | CC(C)Oc1ccc(Cc2cc3cccc(-c4cccc(C(=O)NCCO)c4)c3s2)cn1 | 106 to 107
35 | COc1cc(-c2csc(C(N)=O)n2)cc(Cl)c1OC | 178 to 180
36 | Cn1nnnc1SCCl | 55 to 57
37 | Clc1c2ccccc2nc2c1sc1ccccc12 | 158 to 159
38 | CCCCc1nc2c(N)nc3ccccc3c2n1CCCNC(=O)c1ccccc1 | 189 to 190
39 | CCCn1cnc2cc(CN3CCN(C(c4ccccc4)c4ccccc4)CC3)ccc21 | 155
40 | OC1CSC(Oc2ccc(-c3ccncc3)nc2)C(O)C1O (centres undefined) | 248
41 | CN1CCOc2cc(-c3cnc4[nH]cc(C(=O)C5(C)CCCCC5)c4n3)ccc21 | 243 to 244
42 | CNS(=O)(=O)c1cc(OC)c(OC)c(C(=O)O)c1 | 164 to 165
43 | COc1cc(C)c(C=CC(C)=CC=C(C)C(=O)O)c(C)c1C | 188 to 190
44 | Cc1cc(C)cc(S(=O)(=O)c2ccc([N+](=O)[O-])cc2)c1 | 179 to 180
45 | NCCN1CCC(=C2c3ccccc3C=Cc3ccccc32)CC1 | 102
46 | Cc1ncc(C(=O)Nc2ccc(-n3nc(C(F)(F)F)cc3C3CC3)cc2)c(C)n1 | 145 to 147
47 | CN(C)CCCN(C)C1CCC2C3CCC4CCCCC4(C)C3C(O)CC21C (centres undefined) | 130 to 131
48 | Cc1ccc(Sc2cc([N+](=O)[O-])cc3c2C(=O)OC3=O)cc1 | 180 to 182
49 | Cc1cc(C(=O)OC(C)(C)C)ccc1[N+](=O)[O-] | 56 to 58
